SMILES strings stand for the structures. Bounds are passed on as bounds.

The target in one assay is TLR2 (Homo sapiens, UniProt O60603). Nature of the assay: TLR2 agonist screening assay, HEK-Blue TLR2 reporter cell line (NF-kB-driven SEAP, absorbance at 600 nm). It counts as cell-based. Further details: host or cells: HEK-293 (HEK-Blue TLR2 reporter cell line). Particulars: HEK-Blue TLR2 reporter cells, agonist mode; average of all runs (Table 3). The essentials: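 EC50 values come from dilution series of agonist on TLR2-transfected HEK-293 reporter cells carrying an NF-kB-SEAP construct. Cells sat overnight with compound in substrate-containing Detection medium at 1% DMSO, and secreted phosphatase activity was quantified as absorbance at 600 nm.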
Sequence of TLR2 (O60603 21-784): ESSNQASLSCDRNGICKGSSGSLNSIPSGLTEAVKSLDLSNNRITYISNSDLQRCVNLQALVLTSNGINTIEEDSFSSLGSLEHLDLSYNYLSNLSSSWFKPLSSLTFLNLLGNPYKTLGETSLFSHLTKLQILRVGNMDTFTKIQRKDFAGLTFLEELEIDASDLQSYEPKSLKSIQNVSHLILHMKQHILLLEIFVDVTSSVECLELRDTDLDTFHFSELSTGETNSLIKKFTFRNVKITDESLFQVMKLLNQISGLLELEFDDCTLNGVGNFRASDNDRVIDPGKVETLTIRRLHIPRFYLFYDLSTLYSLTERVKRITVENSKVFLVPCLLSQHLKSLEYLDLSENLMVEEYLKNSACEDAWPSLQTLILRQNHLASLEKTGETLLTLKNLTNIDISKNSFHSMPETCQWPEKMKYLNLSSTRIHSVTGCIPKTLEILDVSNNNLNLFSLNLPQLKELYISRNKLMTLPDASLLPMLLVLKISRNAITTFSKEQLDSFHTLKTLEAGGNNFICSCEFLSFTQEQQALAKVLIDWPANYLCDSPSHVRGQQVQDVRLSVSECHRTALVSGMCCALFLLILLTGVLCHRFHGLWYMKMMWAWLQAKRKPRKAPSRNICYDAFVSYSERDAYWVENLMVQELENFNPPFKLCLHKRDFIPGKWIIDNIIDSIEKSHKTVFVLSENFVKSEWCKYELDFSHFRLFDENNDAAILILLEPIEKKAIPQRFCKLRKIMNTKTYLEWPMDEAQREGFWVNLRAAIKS
In the case of `O=C(N[C@H]1C[C@@H]1c1ccccc1)[C@@H]1CN(C(=O)C23CC(C(=O)N4C[C@@H](C(=O)N[C@H]5C[C@@H]5c5ccccc5)[C@H](C(=O)N[C@H]5C[C@@H]5c5ccccc5)C4)(C2)C3)C[C@H]1C(=O)N[C@H]1C[C@@H]1c1ccccc1` [Compound 068], the EC50 was more than 1000 nM.

`CCCCCCCO[C@H]1CN(C(=O)c2ccc(C(=O)N3C[C@@H](C(=O)N[C@H]4C[C@@H]4c4ccccc4)[C@H](C(=O)N[C@H]4C[C@@H]4c4ccccc4)C3)cc2)C[C@H]1C(=O)NCCCCCC` (single isomer, unassigned) [Compound 073, (3S,4S)-1-(4-((3R*,4R*)-3-(heptyloxy)-4-(hexylcarbamoyl)pyrrolidine-1-carbonyl)benzoyl)-N3,N4-bis((1S,2R)-2-phenylcyclopropyl)pyrrolidine-3,4-dicarboxamide] showed an EC50 of 351 to 1000 nM. For `CCCCCCCC(=O)N1CCN(C(=O)c2ccc(C(=O)N3C[C@@H](C(=O)N[C@H]4C[C@@H]4c4ccccc4)[C@H](C(=O)N[C@H]4C[C@@H]4c4ccccc4)C3)cc2)CC1C(=O)NCCCCC` (stereo partly drawn) [Compound 052, (3S,4S)-1-(4-(4-octanoyl-3-(pentylcarbamoyl)piperazine-1-carbonyl)benzoyl)-N3,N4-bis((1S,2R)-2-phenylcyclopropyl)pyrrolidine-3,4-dicarboxamide], the EC50 was in the range of 0.1 to 50 nM.

The same assay, now with this note: HEK-Blue TLR2 reporter cells, agonist mode; average of all runs (Table 4).
`CCCCCCCCCC(=O)N[C@@H](CN1Cc2cc(C(=O)N3C[C@@H](C(=O)N[C@H]4C[C@@H]4c4ccccc4)[C@H](C(=O)N[C@H]4C[C@@H]4c4ccccc4)C3)ccc2C1=O)C(=O)NCCCCCC` [Compound 242, (3S,4S)-1-(2-((S)-2-decanamido-3-(hexylamino)-3-oxopropyl)-1-oxoisoindoline-5-carbonyl)-N3,N4-bis((1S,2R)-2-phenylcyclopropyl)pyrrolidine-3,4-dicarboxamide] yielded an EC50 of 51 to 350 nM. With `O=C1CCCCCCCCCCCCNC(=O)[C@H](CNC(=O)c2ccc(C(=O)N3C[C@@H](C(=O)N[C@H]4C[C@@H]4c4ccccc4)[C@H](C(=O)N[C@H]4C[C@@H]4c4ccccc4)C3)cc2)N1` [Compound 225, (3S,4S)-1-(4-((((S)-3,17-dioxo-1,4-diazacycloheptadecan-2-yl)methyl)carbamoyl)benzoyl)-N3,N4-bis((1S,2R)-2-phenylcyclopropyl)pyrrolidine-3,4-dicarboxamide], the EC50 lay in the range of 351 to 1000 nM. `CCCCCCCC(=O)N1CCN(Cc2ccc(C(=O)N3C[C@@H](C(=O)N[C@H]4C[C@@H]4c4ccccc4)[C@H](C(=O)N[C@H]4C[C@@H]4c4ccccc4)C3)cc2)C[C@@H]1C(=O)NCCCCCC` [Compound 121, (3S,4S)-1-(4-(((R)-3-(hexylcarbamoyl)-4-octanoylpiperazin-1-yl)methyl)benzoyl)-N3,N4-bis((1S,2R)-2-phenylcyclopropyl)pyrrolidine-3,4-dicarboxamide] returned an EC50 of 351 to 1000 nM.

In the case of `CCCCCCNC(=O)[C@H](CNC(=O)c1ccc(C(=O)N2C[C@@H](C(=O)N[C@H]3C[C@@H]3c3ccccc3)[C@H](C(=O)N[C@H]3C[C@@H]3c3ccccc3)C2)cc1)NC(=O)CCc1ccc(F)cc1` [Compound 139, (3S,4S)-1-(4-(((S)-2-(3-(4-fluorophenyl)propanamido)-3-(hexylamino)-3-oxopropyl)carbamoyl)benzoyl)-N3,N4-bis ((1S,2R)-2-phenylcyclopropyl) pyrrolidine-3,4-dicarboxamide], the EC50 lay within 0.1 to 50 nM. As to `CCCCCCCCCCCCCCC(=O)N[C@H]1CN(C(=O)c2ccc(C(=O)N3C[C@@H](C(=O)N[C@H]4C[C@@H]4c4ccccc4)[C@H](C(=O)N[C@H]4C[C@@H]4c4ccccc4)C3)cc2)C[C@@H]1O` [Compound 078, (3S,4S)-1-(4-((3S,4S)-3-hydroxy-4-pentadecanamidopyrrolidine-1-carbonyl)benzoyl)-N3,N4-bis((1S,2R)-2-phenylcyclopropyl)pyrrolidine-3,4-dicarboxamide], the EC50 was 51 to 350 nM.

Turning to `CCCCCCCO[C@H]1CN(C(=O)c2ccc(C(=O)N3C[C@@H](C(=O)N[C@H]4C[C@@H]4c4ccccc4)[C@H](C(=O)N[C@H]4C[C@@H]4c4ccccc4)C3)cc2)C[C@@H]1C(=O)NCCCCCC` (relative stereo) [Compound 113, (3S,4S)-1-(4-((3R*,4S*)-3-(heptyloxy)-4-(hexylcarbamoyl)pyrrolidine-1-carbonyl)benzoyl)-N3,N4-bis((1S,2R)-2-phenylcyclopropyl)pyrrolidine-3,4-dicarboxamide], the EC50 lay in the range of 51 to 350 nM. In turn, `CCCCCCNC(=O)CC[C@@H](NC(=O)c1ccc(C(=O)N2C[C@@H](C(=O)N[C@H]3C[C@@H]3c3ccccc3)[C@H](C(=O)N[C@H]3C[C@@H]3c3ccccc3)C2)cc1)C(=O)NCCCCCC` [Compound 099, (3S,4S)-1-(4-(((R)-1,5-bis(hexylamino)-1,5-dioxopentan-2-yl)carbamoyl)benzoyl)-N3,N4-bis((1S,2R)-2-phenylcyclopropyl)pyrrolidine-3,4-dicarboxamide] registered an EC50 of more than 1000 nM. On to `CCCCCCNC(=O)C[C@@H](NC(=O)c1ccc(C(=O)N2C[C@@H](C(=O)N[C@H]3C[C@@H]3c3ccccc3)[C@H](C(=O)N[C@H]3C[C@@H]3c3ccccc3)C2)cc1)C(=O)NCCCCCC` [Compound 117, (3S,4S)-1-(4-(((R)-1,4-bis(hexylamino)-1,4-dioxobutan-2-yl)carbamoyl)benzoyl)-N3,N4-bis((1S,2R)-2-phenylcyclopropyl) pyrrolidine-3,4-dicarboxamide], for which the EC50 was more than 1000 nM. The compound `CCCCCCCCCCCCCCCN1C[C@H](NC(=O)c2ccc(C(=O)N3C[C@@H](C(=O)N[C@H]4C[C@@H]4c4ccccc4)[C@H](C(=O)N[C@H]4C[C@@H]4c4ccccc4)C3)cc2)CCC1=O` [Compound 169, (3S,4S)-1-(4-(((R)-6-oxo-1-pentadecylpiperidin-3-yl)carbamoyl)benzoyl)-N3,N4-bis((1S,2R)-2-phenylcyclopropyl)pyrrolidine-3,4-dicarboxamide] yielded a concentration giving a half-maximal response (EC50) of more than 1000 nM.

In the case of `CCCCCCCCCCCCCNC(=O)N[C@@H]1CN(C(=O)c2ccc(C(=O)N3C[C@@H](C(=O)N[C@H]4C[C@@H]4c4ccccc4)[C@H](C(=O)N[C@H]4C[C@@H]4c4ccccc4)C3)cc2)C[C@@H]1OC` [Compound 208, (3S,4S)-1-(4-((3S,4R)-3-methoxy-4-(3-tridecylureido)pyrrolidine-1-carbonyl)benzoyl)-N3,N4-bis((1S,2R)-2-phenylcyclopropyl)pyrrolidine-3,4-dicarboxamide], the EC50 was 0.1 to 50 nM. `CCCCCCCCN1C(=O)N(Cc2ccc(C(=O)N3C[C@@H](C(=O)N[C@H]4C[C@@H]4c4ccccc4)[C@H](C(=O)N[C@H]4C[C@@H]4c4ccccc4)C3)cc2)C[C@@H]1C(=O)NCCCCCC` [Compound 168, (3S,4S)-1-(4-(((R)-4-(hexylcarbamoyl)-3-octyl-2-oxoimidazolidin-1-yl)methyl)benzoyl)-N3,N4-bis((1S,2R)-2-phenylcyclopropyl)pyrrolidine-3,4-dicarboxamide] had an EC50 of 51 to 350 nM. Regarding `CCCCCCCCCC(=O)N[C@@H](CNc1nc2ccc(C(=O)N3C[C@@H](C(=O)N[C@H]4C[C@@H]4c4ccccc4)[C@H](C(=O)N[C@H]4C[C@@H]4c4ccccc4)C3)cc2s1)C(=O)NCCCCCC` [Compound 262, (3S,4S)-1-(2-(((S)-2-decanamido-3-(hexylamino)-3-oxopropyl)amino)benzo[d]thiazole-6-carbonyl)-N3,N4-bis((1S,2R)-2-phenylcyclopropyl)pyrrolidine-3,4-dicarboxamide], the EC50 is more than 1000 nM.

In the case of `CCCCCCCCCCCCCCNC(=O)[C@H]1CN(S(=O)(=O)c2cccc(C(=O)N3C[C@@H](C(=O)N[C@H]4C[C@@H]4c4ccccc4)[C@H](C(=O)N[C@H]4C[C@@H]4c4ccccc4)C3)c2)CCN1C(C)=O` [Compound 192, (3S,4S)-1-(3-(((R)-4-acetyl-3-(tetradecylcarbamoyl)piperazin-1-yl)sulfonyl)benzoyl)-N3,N4-bis((1S,2R)-2-phenylcyclopropyl)pyrrolidine-3,4-dicarboxamide], the EC50 lay in the range of 351 to 1000 nM. `CCCCCCCC(=O)N1CCN(S(=O)(=O)c2cccc(C(=O)N3C[C@@H](C(=O)N[C@H]4C[C@@H]4c4ccccc4)[C@H](C(=O)N[C@H]4C[C@@H]4c4ccccc4)C3)c2)C[C@@H]1C(=O)NCCCCCC` [Compound 171, (3S,4S)-1-(3-(((R)-3-(hexylcarbamoyl)-4-octanoylpiperazin-1-yl)sulfonyl)benzoyl)-N3,N4-bis((1S,2R)-2-phenylcyclopropyl)pyrrolidine-3,4-dicarboxamide] showed an EC50 of more than 1000 nM.

The compound `CCCCCCCNC(=O)[C@@H]1CN(C(=O)c2ccc(C(=O)N3C[C@@H](C(=O)N[C@H]4C[C@@H]4c4ccccc4)[C@H](C(=O)N[C@H]4C[C@@H]4c4ccccc4)C3)cc2)CCN1C(C)=O` [Compound 258, (3S,4S)-1-(4-((S)-4-acetyl-3-(heptylcarbamoyl)piperazine-1-carbonyl)benzoyl)-N3,N4-bis((1S,2R)-2-phenylcyclopropyl)pyrrolidine-3,4-dicarboxamide] showed an EC50 of more than 1000 nM. On the same count and under the same terms, the same measure for `CCCCCCCCCC(=O)N[C@@H](CNC(=O)Nc1ccc(C(=O)N2C[C@@H](C(=O)N[C@H]3C[C@@H]3c3ccccc3)[C@H](C(=O)N[C@H]3C[C@@H]3c3ccccc3)C2)cc1)C(=O)NCCCCCC` [Compound 235, (3S,4S)-1-(4-(3-((S)-2-decanamido-3-(hexylamino)-3-oxopropyl)ureido)benzoyl)-N3,N4-bis((1S,2R)-2-phenylcyclopropyl)pyrrolidine-3,4-dicarboxamide]: more than 1000 nM; for `CCCCCCNC(=O)[C@@H](CCNC(=O)CCCCCC)NC(=O)c1ccc(C(=O)N2C[C@@H](C(=O)N[C@H]3C[C@@H]3c3ccccc3)[C@H](C(=O)N[C@H]3C[C@@H]3c3ccccc3)C2)cc1` [Compound 119, (3S,4S)-1-(4-(((R)-4-heptanamido-1-(hexylamino)-1-oxobutan-2-yl)carbamoyl)benzoyl)-N3,N4-bis((1S,2R)-2-phenylcyclopropyl)pyrrolidine-3,4-dicarboxamide]: more than 1000 nM.

Usually EC50 stands for the concentration at which the effect is half-maximal. Read a high EC50 as lower potency in that assay.

These data come from patent publication US11951094B2, “TLR2 modulator compounds, pharmaceutical compositions and uses thereof” (Axial Therapeutics, Inc., priority 2020, dated 2024).
